Consider two molecules from BindingDB's records for doi:10.1016/j.bmcl.2008.12.083 (Merck Research Laboratories, 2009).

The term IC50 denotes the point on the concentration scale where inhibition reaches its midpoint. Read a low IC50 as greater potency in that assay.

One test concerns the target Histone deacetylase 3 (Homo sapiens, UniProt O15379). Put plainly: HDAC Activity Assay. The conditions noted are these: 25 °C. Here is the method: (§1) The Fluor-de-Lys HDAC activity assay kit (Biomol) was used. Purified recombinant HDAC enzyme was incubated with Fluor-de-Lys substrate in the presence of test compounds. Fluor-de-Lys Developer was then added, and the mixture was incubated for another 10 min at room temperature. Fluorescence was measured using a fluorescent plate reader, with excitation 360 nm and emission 460 nm.

In the next test the target is Histone deacetylase 1 (Homo sapiens, UniProt Q13547). Put plainly: HDAC Activity Assay. The conditions noted are these: pH 8; 37 °C. Here is the method: as §1
Sequence of Histone deacetylase 1 (Q13547 whole entry): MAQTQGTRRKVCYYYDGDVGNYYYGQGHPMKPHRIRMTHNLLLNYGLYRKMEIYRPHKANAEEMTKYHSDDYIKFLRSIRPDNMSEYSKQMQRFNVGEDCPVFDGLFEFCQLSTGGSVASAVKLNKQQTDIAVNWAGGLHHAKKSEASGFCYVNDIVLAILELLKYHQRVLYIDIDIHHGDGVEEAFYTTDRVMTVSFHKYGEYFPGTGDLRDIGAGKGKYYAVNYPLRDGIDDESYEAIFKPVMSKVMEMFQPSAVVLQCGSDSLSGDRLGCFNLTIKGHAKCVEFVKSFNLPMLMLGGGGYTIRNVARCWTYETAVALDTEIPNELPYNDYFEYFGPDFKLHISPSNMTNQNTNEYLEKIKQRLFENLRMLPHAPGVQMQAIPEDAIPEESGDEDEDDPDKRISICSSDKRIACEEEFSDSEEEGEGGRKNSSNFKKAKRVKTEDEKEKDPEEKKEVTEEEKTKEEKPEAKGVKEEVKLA

Sequence of Histone deacetylase 3 (O15379 whole entry): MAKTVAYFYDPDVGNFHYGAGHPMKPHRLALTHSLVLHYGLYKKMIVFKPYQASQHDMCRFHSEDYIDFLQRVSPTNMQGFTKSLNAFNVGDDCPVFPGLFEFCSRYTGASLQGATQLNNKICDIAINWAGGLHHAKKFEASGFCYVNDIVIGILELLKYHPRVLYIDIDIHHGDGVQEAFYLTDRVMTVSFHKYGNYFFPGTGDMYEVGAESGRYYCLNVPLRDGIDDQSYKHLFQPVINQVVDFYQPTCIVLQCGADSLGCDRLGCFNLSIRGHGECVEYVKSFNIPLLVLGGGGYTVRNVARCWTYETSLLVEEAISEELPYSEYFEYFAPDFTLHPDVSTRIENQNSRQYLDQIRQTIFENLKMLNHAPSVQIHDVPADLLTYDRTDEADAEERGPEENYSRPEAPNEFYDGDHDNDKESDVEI

Take `Cc1c(CNCc2ccc(C(=O)Nc3cc(-c4ccccc4)ccc3N)cc2)cnn1C` [N-(2-amino-5-phenylphenyl)-4-({[(1,5-dimethyl-1H-pyrazol-4-yl)methyl]amino}methyl)benzamide]: inhibition against Histone deacetylase 3 was half-maximal at 19.3 µM (IC50).
`Nc1ccc(-c2ccc(F)cc2)cc1NC(=O)c1ccc(CN2CCC3(CCCN3)CC2)cc1` [N-[2-amino-5-(4-fluorophenyl)phenyl]-4-{1,8-diazaspiro[4.5]decan-8-ylmethyl}benzamide]: the half-inhibitory concentration (IC50) on Histone deacetylase 3 was found to be 4.8 µM; against Histone deacetylase 1, 0.013 µM.
